Laboratory results: patent US4101538A, “Nonapeptides and methods for their production” (Warner-Lambert, priority 1977, dated 1978)
Where a SMILES comes first, the peptide text is derived from it. The star is where a group is joined. Cbz = O=C(OCc1ccccc1)*; Bn = c1ccc(C*)cc1

Tested on: LRF (luteinizing hormone releasing factor) induced luteinizing hormone (LH) release
Experiment: In vitro LRF antagonist test in rat anterior pituitary cell cultures
Format: cell-based
From the text: Nonapeptides of this invention were screened for LRF antagonist activity in vitro using rat anterior pituitary cell cultures as described by Vale et. al. [Endocrinology, 91, 562 (1972)]. The inhibition of LRF (luteinizing hormone releasing factor) induced luteinizing hormone (LH) release into the culture medium is the endpoint in this in vitro bioassay.

Row | Molecule | LH Value (LRF alone, molar conc. 5×10^-10) [ng/mL] | % LH Release Inhibition (compound molar conc. 1×10^-7) [%] | LH Value (compound molar conc. 1×10^-7, LH released into culture medium) [ng/mL] | % LH Release Inhibition (compound molar conc. 1×10^-8) [%] | LH Value (compound molar conc. 1×10^-8, LH released into culture medium) [ng/mL]
1 | LRF Control: luteinizing hormone releasing factor, also referred to as luteinizing hormone releasing hormone (LH-RH); stimulates secretion of luteinizing hormone (QHWSYGLRPG; Gonadoliberin-1; UniProt P01148 24-33, looked up) [reference compound] | 69.51 | – | – | – | –
2 | NC(=O)CC[C@H](NC(=O)OCc1ccccc1)C(=O)N[C@@H](Cc1c[nH]c2ccccc12)C(=O)N[C@@H](CO)C(=O)N[C@@H](Cc1ccc(O)cc1)C(=O)N[C@@H](Cc1c[nH]c2ccccc12)C(=O)N1CCC[C@H]1C(=O)N1CCC[C@H]1C(=O)N[C@@H](Cc1ccc(OCc2ccccc2)cc1)C(=O)N[C@@H](COCc1ccccc1)C(N)=O [N^α -benzyloxycarbonyl-L-glutaminyl-L-tryptophyl-L-seryl-L-tyrosyl-L-tryptophyl-L-prolyl-L-prolyl-O-benzyl-L-tyrosyl-O-benzyl-L-serinamide] (Cbz-QWSYWPPY(Bn)S(Bn)-NH2) | – | 29 | 52.33 | 37 | 47.20
